Test results from PMC12216609, “Inhibitors of eIF1A-ribosome interaction unveil uORF-dependent regulation of translation initiation and antitumor and antiviral effects” (The EMBO Journal, 2025).
Several values for one entry are separate records, joined by “and”; a condition that tells them apart may be missing. Equal values may be shown once. Read-outs that look alike come from different tables or passages of the source.

Columns and labels:
[1] = target: NSP1 (Severe acute respiratory syndrome coronavirus 2, UniProt P0DTD1)
[2] = tested on: CUG/GUG vs AUG start codon luciferase reporters in HEK293T cells; assay: Near-cognate AUG starting codon fidelity reporter assay (GUG, CUG vs AUG); type: cell-based; settings: for average CUG and GUG / average CUG and GUG relative to DMSO / CUG Average / GUG Average: NUG experiment; for CUG Average: CUG vs AUG reporter; for GUG Average: GUG vs AUG reporter; for NUG (Final data, Fig. 1E): average CUG and GUG relative to DMSO, 20 µM overnight; for GUG vs AUG data (%): individual repeat; for GUG vs AUG (%) Average: summary average of repeats, DMSO control average […]
Procedure: We next considered the importance of eIF1A in controlling start codon fidelity in yeast and mammalian cells (Martin-Marcos et al, [2011]; Martin-Marcos et al, [2017]; Sehrawat et al, [2019]; She et al, [2023]) and tested how inhibition of eIF1A by 1Ais affects the initiation from near-cognate AUG. The effect of 1Ais was analyzed using firefly luciferase reporters bearing either AUG (control), CUG, or GUG as the exclusive translation initiation sites. Co-transfected GFP reporter served as an internal control for transfection efficiency.
For the near-cognate AUG Starting codon fidelity reporter assay, HEK293T cells were transfected with 100 ng of the previously described luciferase reporter constructs driven either by AUG, CUG, and GUG (Tang et al, [2017]) together with GFP expressing plasmid (20 ng) as normalizing control. Luciferase and GFP levels were determined as described above.
Appendix Figure S1: (A) HEK293T cells were transfected with Luciferase reporter genes with either CUG or AUG as their exclusive starting codon. 6 hours after transfection, cells were exposed to 1Ais, and the luminescence from all constructs was measured after overnight incubation. Bars represent the ratio between luminescence from the AUG starting codon and CUG after normalization with co-transfected GFP; Error bars represent SEM, * denotes p<0.05 (T-test comparing to DMSO control), n=≥4 independent biological replicates.

[3] = tested on: IRF7 5'UTR firefly luciferase reporter in HEK293T cells; settings: for Reference vs IRF7 (Final data, Fig. 1E): 1/Result, relative to DMSO; for LONG (summary - All), normalized to DMSO / Long: Normalized to average DMSO: Long reporter; for LONG (summary - All), normalized to DMSO / SHORT (summary - All), normalized to DMSO: individual replicates, outliers excluded, DMSO = 1; for average ( long vs short ratio): summary - All;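 as to all read-outs here: luciferase signal corrected by a co-transfected GFP reporter for transfection efficiency, read after overnight compound exposure, with Long and Short reporters differing in 5'UTR length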
[4] = tested on: uORF-bearing 5'UTR firefly reporters in HEK293T cells; assay: uORF reinitiation / leaky scanning firefly reporters; settings: for ff/rl, 46 leaky reporter / ff/rl, 46 reporter / ff/rl, normal reporter: single replicates, not normalized to DMSO
Description: (M) The reference and uORF-bearing reporters were transfected to HEK293T cells together with RL, which served to normalize translation efficiency. The reporter activities are represented as firefly vs RL; n ≥3 independent biological replicates, error bars represent SEM. *P < 0.05, **P < 0.01, Student t test. (N) Firefly Reporters (J) were transfected to HEK293T cells together with normalizing RL. […] Results are represented as firefly vs. RL normalized to DMSO in each biological replicate; n = 4, error bars represent SEM. *P < 0.05, **P < 0.01, Student t test.
In the first and second, we inserted an out-of-frame uAUG 46 or 95 nucleotides before the main ORF, respectively, followed by a downstream stop codon generating an uORF of 10 amino acids. In these constructs, the translation from the main ORF could be either by reinitiation or leaky scanning. In the third construct, this out of frame uAUG lacks a stop codon, causing initiation from the main ORF to exclusively occur via leaky scanning (Fig. 4L). These reporters were transfected into HEK293T cells together with RL luciferase reporter for normalizing transfection efficiency. […] We next examined these reporters in the presence of 1Ais.

[5] = target: T1, eIF1A without NTT (Homo sapiens, UniProt P47813); assay: Fluorescence binding assay with NTT-truncated eIF1A
T1 construct: His-bdSUMO (cleaved yes); made in house; host or cells: E. coli (BL-21)

[6] = data section, GFP-corrected, 20 µM, per experiment, includes values excluded as outliers
[7] = raw data calculation of one experiment, GFP normalized, AUG set to 100, compound marked (20)

T1 sequence (P47813 31-144 limits assumed): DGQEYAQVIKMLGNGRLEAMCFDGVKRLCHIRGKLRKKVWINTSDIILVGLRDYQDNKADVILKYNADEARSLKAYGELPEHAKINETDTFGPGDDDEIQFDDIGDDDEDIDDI

SMILES: O=C(CSc1nc(-c2ccccc2)cn1-c1ccccc1)NC(=O)Nc1ccccc1 [1Ai-2383]
- GFP reporter ratio nsp1/gfp, avg [1]: 0.4187
- GFP reporter ratio nsp1/gfp, rep 1 [1]: 0.4187
- gfp signal, mean of duplicate wells [1]: 2499.5
- nsp1 signal, mean of duplicate wells [1]: 1046.5
- ratio (nsp1/gfp) [1]: 0.419
- average CUG and GUG [2]: 5.372
- average CUG and GUG relative to DMSO [2]: 1.191
- CUG Average [2]: 8.595
- GUG Average [2]: 2.149
- NUG (Final data, Fig. 1E) [2]: 1.191
- GUG vs AUG data (%) ([2]; compound at 20uM): 2.05% and 2.35% and 1.83% and 2.36%
- GUG vs AUG (%) Average ([2]; compound at 20uM): 2.15%
- Reference vs IRF7 (Final data, Fig. 1E) ([3]; 20 µM): 1.265
- LONG (summary - All), normalized to DMSO ([3]; 20 µM): 0.91 and 0.57 and 0.60
- SHORT (summary - All), normalized to DMSO ([3]; Short reporter, 20 µM): 0.93 and 0.86 and 0.76
- Long: Normalized to average DMSO [3, 6]: 0.9138 and 0.5713 and 0.6011 and 0.6048
- Short: Normalized to average DMSO ([3]; data section, Short reporter, GFP-corrected, 20 µM, per experiment, includes values excluded as outliers): 0.9324 and 0.8573 and 0.5797 and 0.7642
- average ( long vs short ratio) ([3]; 20 µM): 0.790

SMILES: COc1ccc(C=C2CSc3ccc(Cl)cc3C2=O)cc1O [1Ai-5175]
- effect on uORF / leaky scanning reporters ([4]; 20uM (1Ai-5175 at 5uM), overnight): inhibit the short-distance reinitiation
- normalized to DMSO, 46 leaky, average ([4]; 46 leaky reporter, average of biological repeats): 0.842
- normalized to DMSO, 46 leaky, biological repeats ([4]; 46 leaky reporter, biological repeats 1-4): 0.696 and 0.690 and 0.975 and 1.007
- normalized to DMSO, 46 leaky ([4]; 46 leaky reporter, single replicates 1-8 (two dates)): 0.670 and 0.722 and 0.651 and 0.728 and 1.015 and 0.935 and 0.924 and 1.090
- normalized to DMSO, -46, average ([4]; -46 reporter, average of biological repeats): 0.583
- normalized to DMSO, -46, biological repeats ([4]; -46 reporter, biological repeats 1-4): 0.455 and 0.565 and 0.613 and 0.698
- normalized to DMSO, -46 ([4]; -46 reporter, single replicates 1-8 (two dates)): 0.448 and 0.461 and 0.490 and 0.641 and 0.602 and 0.625 and 0.452 and 0.944
- ff/rl, 46 leaky reporter ([4]; experiment 12.3.24): 2.64E-02 and 2.84E-02 and 2.56E-02 and 2.87E-02
- ff/rl, 46 reporter ([4]; experiment 12.3.24): 9.52E-02 and 9.80E-02 and 1.04E-01 and 1.36E-01
- ff/rl, normal reporter ([4]; experiment 12.3.24): 3.34E-01 and 1.68E-01 and 2.05E-01 and 1.98E-01
- ff/rl, 46 leaky reporter ([4]; experiment 13.03.24): 4.57E-03 and 4.21E-03 and 4.16E-03 and 4.91E-03
- ff/rl, 46 reporter ([4]; experiment 13.03.24): 1.39E-02 and 1.45E-02 and 1.05E-02 and 2.19E-02
- ff/rl, normal reporter ([4]; experiment 13.03.24): 4.32E-02 and 3.04E-02 and 3.07E-02 and 3.75E-02
- reporter activity norm to DMSO, minus46 ([4]; minus46 reporter, 95nt from uORF to main ORF experiment, Figure 4N source data, replicate experiments, DMSO = 1): 0.1896 and 0.185
- 95nt from uORF to main ORF experiment, minus46, average (DMSO = 1) ([4]; minus46 reporter, average): 0.497
- reporter activity norm to DMSO, minus 95 ([4]; minus 95 (nt) reporter, 95nt from uORF to main ORF experiment, Figure 4N source data, replicate experiments, DMSO = 1): 0.3264 and 0.388
- 95nt from uORF to main ORF experiment, minus 95nt, average (DMSO = 1) ([4]; minus 95nt reporter, average): 0.9478
- reporter activity norm to DMSO, ref ([4]; ref reporter, 95nt from uORF to main ORF experiment, Figure 4N source data, replicate experiments, DMSO = 1): 0.381 and 0.3727
- 95nt from uORF to main ORF experiment, ref, average (DMSO = 1) ([4]; ref reporter, average): 0.3768
- normalized to DMSO, refference, average ([4]; refference reporter, average of biological repeats): 0.842
- normalized to DMSO, refference, biological repeats ([4]; refference reporter, biological repeats 1-4): 0.886 and 0.712 and 0.917 and 0.851
- normalized to DMSO, refference ([4]; refference reporter, single replicates 1-8 (two dates)): 1.178 and 0.594 and 0.724 and 0.700 and 1.078 and 0.757 and 0.766 and 0.936
- normalized to DMSO, single replicates ([4]; reporter 46, experiment 12.3.24): 4.48E-01 and 4.61E-01 and 4.90E-01 and 6.41E-01
- normalize to DMSO, average ([4]; reporter 46, experiment 12.3.24, DMSO = 1): 0.51
- normalized to DMSO, single replicates ([4]; reporter 46, experiment 13.3.24): 6.02E-01 and 6.25E-01 and 4.52E-01 and 9.44E-01
- normalize to DMSO, average ([4]; reporter 46, experiment 13.3.24, DMSO = 1): 0.6556
- normalize to DMSO, average ([4]; reporter 46 leaky, experiment 12.3.24, DMSO = 1): 0.6928
- normalized to DMSO, single replicates ([4]; reporter 46 leaky, experiment 13.3.24): 1.01E+00 and 9.35E-01 and 9.24E-01 and 1.09E+00
- normalize to DMSO, average ([4]; reporter 46 leaky, experiment 13.3.24, DMSO = 1): 0.991
- normalized to DMSO, single replicates ([4]; reporter normal (refference), experiment 12.3.24): 1.18E+00 and 5.94E-01 and 7.24E-01 and 7.00E-01
- normalized to DMSO, single replicates ([4]; reporter normal (refference), experiment 13.3.24): 1.08E+00 and 7.57E-01 and 7.66E-01 and 9.36E-01
- normalize to DMSO, average ([4]; reporter refference, experiment 12.3.24, DMSO = 1): 0.7988
- normalize to DMSO, average ([4]; reporter refference, experiment 13.3.24, DMSO = 1): 0.8842
- inhibitory effect with extended (long) reinitiation distance ([4]; uORF to main ORF distance extended by 49 nt): lost
- CUG vs AUG (%) ([2]; CUG start codon reporter relative to AUG reporter (AUG = 100), compound at 5uM (summary head), single-experiment calculation): 10.1681% and 8.512%
- GUG vs AUG (%) ([2]; GUG start codon reporter relative to AUG reporter (AUG = 100), compound at 5uM (summary head), single-experiment calculation): 2.289% and 2.982%
- average CUG and GUG [2]: 5.826
- average CUG and GUG relative to DMSO [2]: 1.2918
- CUG Average [2]: 9.011
- GUG Average [2]: 2.642
- NUG (Final data, Fig. 1E) [2]: 1.292
- GUG vs AUG data (%) ([2]; compound at 5uM): 2.76% and 3.14% and 2.85% and 1.82%
- GUG vs AUG (%) Average ([2]; compound at 5uM): 2.64%
- calculation: CUG (AUG = 100) [2, 7]: 4.394
- calculation: GUG (AUG = 100) [2, 7]: 1.456
- binding to NTT-truncated eIF1A [5]: no binding
- NTT truncation IC50 ([5]; eIF1A without NTT): No binding
- IC50 concentration (µM), NTT truncation ([5]; summary table, fluorescence binding assay): No binding
- Reference vs IRF7 (Final data, Fig. 1E) ([3]; 20 µM): 2.369
- LONG (summary - All), normalized to DMSO ([3]; 5 µM): 0.41 and 0.69 and 0.67
- SHORT (summary - All), normalized to DMSO ([3]; Short reporter, 5 µM): 1.04 and 2.35 and 0.82
- Long: Normalized to average DMSO ([3]; data section, GFP-corrected, 5 µM, per experiment): 0.4067 and 0.6939 and 0.6743
- average ( long vs short ratio) ([3]; 5 µM): 0.422

SMILES: O=S(=O)(c1ccccc1)N1CCN(C2c3ccccc3-c3ccccc32)CC1 [1Ai-9025]
- average CUG and GUG [2]: 4.366
- average CUG and GUG relative to DMSO [2]: 0.9681
- CUG Average [2]: 6.84
- GUG Average [2]: 1.892
- NUG (Final data, Fig. 1E) [2]: 0.968
- GUG vs AUG data (%) ([2]; compound at 20uM): 2.56% and 1.57% and 2.32% and 1.11%
- GUG vs AUG (%) Average ([2]; compound at 20uM): 1.89%
- Reference vs IRF7 (Final data, Fig. 1E) ([3]; 20 µM): 1.762
- LONG (summary - All), normalized to DMSO ([3]; 20 µM): 0.59 and 0.94 and 0.66 and 0.50
- SHORT (summary - All), normalized to DMSO ([3]; Short reporter, 20 µM): 1.30 and 0.73 and 1.51
- Long: Normalized to average DMSO [3, 6]: 0.5873 and 0.9413 and 0.6597 and 0.4965
- average ( long vs short ratio) ([3]; 20 µM): 0.568
